What was measured:
[1] = biological target: T1, H1299 cell pAXL (Homo sapiens, UniProt P30530); assay: Inhibitory activity on cell pAXL (Western Blot, hGAS6 stimulation); format: cell-based; conditions: H1299 cells, 60 min compound then hGAS6 200 ng/mL 60 min
T1 construct: endogenous in cells; host or cells: H1299
T1 sequence (P30530 26-894): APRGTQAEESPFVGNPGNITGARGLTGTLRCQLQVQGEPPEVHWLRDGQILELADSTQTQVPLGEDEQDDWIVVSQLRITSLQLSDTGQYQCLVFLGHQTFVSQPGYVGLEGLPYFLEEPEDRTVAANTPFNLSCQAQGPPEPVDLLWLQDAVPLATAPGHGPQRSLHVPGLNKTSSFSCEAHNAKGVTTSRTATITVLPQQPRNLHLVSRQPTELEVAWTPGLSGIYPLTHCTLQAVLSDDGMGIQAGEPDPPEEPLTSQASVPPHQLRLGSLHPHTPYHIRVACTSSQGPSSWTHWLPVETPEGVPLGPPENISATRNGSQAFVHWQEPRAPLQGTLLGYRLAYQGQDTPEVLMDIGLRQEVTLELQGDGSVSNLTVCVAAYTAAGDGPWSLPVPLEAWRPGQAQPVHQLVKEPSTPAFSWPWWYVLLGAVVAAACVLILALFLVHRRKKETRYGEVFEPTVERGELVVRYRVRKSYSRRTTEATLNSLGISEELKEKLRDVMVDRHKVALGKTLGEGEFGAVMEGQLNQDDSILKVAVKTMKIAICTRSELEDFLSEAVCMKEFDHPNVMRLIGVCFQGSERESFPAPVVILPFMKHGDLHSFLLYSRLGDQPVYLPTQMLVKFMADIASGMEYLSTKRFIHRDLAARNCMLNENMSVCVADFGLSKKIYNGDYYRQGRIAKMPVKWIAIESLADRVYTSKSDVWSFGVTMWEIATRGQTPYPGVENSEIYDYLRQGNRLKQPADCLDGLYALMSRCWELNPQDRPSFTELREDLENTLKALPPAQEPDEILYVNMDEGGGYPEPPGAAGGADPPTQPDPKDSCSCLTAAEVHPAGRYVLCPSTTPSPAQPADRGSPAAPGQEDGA
Description: H1299 is a non-small cell lung cancer cell line.
Test substance: the crystal form of the methanesulfonate of the compound of formula (I) of the present disclosure, having the structure shown above.
Test instruments: protein electrophoresis apparatus (Bio Rad), membrane transfer apparatus (Bio Rad), exposure apparatus (Tanon), CO2 cell incubator (Thermo), and the like.
H1299 cells were inoculated into a 6-well plate (containing 10% FBS 1640 medium, 5 × 10^5 cells/well) and adherently cultivated at 37 °C with 5% CO2 for 18 h. The cells were starved overnight, and different concentrations of the compound were added. The final compound concentrations were 0.37 nM, 1.1 nM, 3.3 nM, 10 nM, and 30 nM, with the final DMSO content in each compound well being 1 ‰. The negative control well contained medium with 1‰ DMSO. The cells were incubated at 37 °C with 5% CO2 for 60 min, and then hGAS6 (R&D, final concentration: 200 ng/mL) was added to each well. The cells were incubated for another 60 min, and then the total protein of the cells was extracted for a Western Blot experiment to assay the inhibitory activity of the compound on cell pAXL.

[2] = Stability test under influencing factors (high temperature, high humidity, illumination); format: physicochemical
Description: Test substances: the crystal forms I, II, III, and IV of the methanesulfonate of the compound of formula (I) of the present disclosure.
Methodology: Appropriate amounts of samples of the crystal forms I, II, III, and IV of the methanesulfonate of the compound of formula (I) were separately left to stand open under the conditions of a high temperature (60 °C), a high humidity (RH 92.5%), and illumination (4500±500 Lux); sampling was performed on days 5, 10, and 30 to investigate changes in the appearance, purity, and crystal form of the samples.

[3] = Solubility in FaSSIF (pH 6.5) and FeSSIF (pH 5.0) buffer solutions; format: physicochemical
Description: Test substances: the crystal forms I, II, III, and IV of the methanesulfonate of the compound of formula (I).
• 1) 0.42 g of NaOH, 3.44 g of anhydrous NaH2PO4, and 6.19 g of NaCl were dissolved in about 0.9 L of pure water; • 2) the pH was adjusted to 6.5 using 1 N NaOH or 1 N HCl, and the buffer solution was supplemented to the volume of 1 L with pure water at room temperature; • 3) 2.24 g of FaSSIF powder was added to about 0.5 L of the buffer solution, and the mixture was stirred until the powder was completely dissolved; the resulting solution was supplemented to the volume of 1 L with the buffer solution at room temperature, and after being left to stand for 2 h, it was ready for use.
• 1) 4.04 g of NaOH, 8.65 g of glacial acetic acid, and 11.87 g of NaCl were dissolved in about 0.9 L of pure water; • 2) the pH was adjusted to 5.0 using 1 N NaOH or 1 N HCl, and the buffer solution was supplemented to the volume of 1 L with pure water at room temperature; • 3) 11.2 g of FeSSIF powder was added to about 0.5 L of the buffer solution, and the mixture was stirred until the powder was completely dissolved; the resulting solution was supplemented to the volume of 1 L with the buffer solution at room temperature, and after being left to stand for 2 h, it was ready for use.
An appropriate amount of each test substance was placed into separate 10 mL PE tubes, and FaSSIF (pH 6.5) buffer solution and FeSSIF (pH 5.0) buffer solution, each 10 mL, were added into the tubes, respectively. The tubes were then placed in a constant temperature water bath shaker and shaken at 37 °C for 24 h. After 24 h, samples were collected and centrifuged. The supernatants were diluted, and the solubility of the supernatants was measured.

[4] = Left to stand open at 60 °C for 5 days
[5] = Left to stand open at 60 °C for 10 days
[6] = Left to stand open at 60 °C for 30 days
[7] = Left to stand open at RH 92.5% for 5 days
[8] = Left to stand open at RH 92.5% for 10 days
[9] = Left to stand open at RH 92.5% for 30 days
[10] = Left to stand open under illumination (4500±500 Lux) for 5 days
[11] = Left to stand open under illumination (4500±500 Lux) for 10 days
[12] = Left to stand open under illumination (4500±500 Lux) for 30 days

COc1cc2nccc(Oc3ccc(NC(=O)c4nn(C(C)C)cc(-c5ccc(F)cc5)c4=O)nc3)c2cc1OC [Crystal form I, N-(5-((6,7-dimethoxyquinolin-4-yl)oxy)pyridin-2-yl)-5-(4-fluorophenyl)-1-isopropyl-4-oxo-1,4-dihydropyridazine-3-carboxamide]
IC50 [1]: < 0.37 nM | Appearance ([2]; 0 days): White or off-white solid | Purity ([2]; 0 days): 99.69% | Appearance [2, 4]: White or off-white solid | Purity [2, 4]: 99.70% | Appearance [2, 5]: White or off-white solid | Purity [2, 5]: 99.68% | Appearance [2, 6]: White or off-white solid | Purity [2, 6]: 99.67% | Appearance [2, 7]: White or off-white solid | Purity [2, 7]: 99.69% | Appearance [2, 8]: White or off-white solid | Purity [2, 8]: 99.68% | Appearance [2, 9]: White or off-white solid | Purity [2, 9]: 99.67% | Appearance [2, 10]: White or off-white solid | Purity [2, 10]: 99.70% | Appearance [2, 11]: White or off-white solid | Purity [2, 11]: 99.69% | Appearance [2, 12]: White or off-white solid | Purity [2, 12]: 99.69% | changes in the appearance and purity ([2]; left to stand under conditions of the influencing factors for 30 days): no significant changes | 24-hour solubility in buffer solutions with different pH values pH6.5 ([3]; FaSSIF (pH 6.5), 37 °C, shaken 24 h): 0.052 mg/mL | 24-hour solubility in buffer solutions with different pH values pH5.0 ([3]; FeSSIF (pH 5.0), 37 °C, shaken 24 h): 0.29 mg/mL | solubility compared with the compound of formula (I) ([3]; test solutions at pH 5.0 and pH 6.5): significantly improved
